Assay results published in PMC8617031, “Development of a BCL-xL and BCL-2 dual degrader with improved anti-leukemic activity,” (Nature Communications, 2021).
“And” between values parts separate entries of the source, which are not always exact repeats. Equal values may be shown once. Read-outs that look alike come from different tables or passages of the source.

How the values were obtained:
His-tagged BCL-2 = biological target: T1, His-tagged BCL-2 (Homo sapiens, UniProt P10415); assay: AlphaScreen competitive binary binding, BCL-2 (biotin-BIM peptide); conditions: for Alpha signal normalised to Maximum/Minimum (inhibition): in % (unit assumed)
T1 construct: purchased Sigma-Aldrich SRP0186
T1 sequence (P10415 whole entry): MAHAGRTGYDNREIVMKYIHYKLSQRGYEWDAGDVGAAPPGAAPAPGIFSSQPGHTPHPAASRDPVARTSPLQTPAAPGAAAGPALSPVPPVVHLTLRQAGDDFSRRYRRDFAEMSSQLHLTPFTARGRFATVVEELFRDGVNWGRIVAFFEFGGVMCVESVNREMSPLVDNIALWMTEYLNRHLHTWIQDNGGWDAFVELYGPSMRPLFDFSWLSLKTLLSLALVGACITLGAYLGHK
Protocol: The reagents were diluted in a buffer containing 250 mM HEPES pH 7.5, 1 M NaCl, 1% BSA, and 0.05% Tween-80. His-tagged BCL-xL (0.5 nM, Cat. No. SRP0187, Sigma-Aldrich) or BCL-2 (1 nM, Cat. No. SRP0186, Sigma-Aldrich) were incubated with serial diluted 753a or 753b and 2 nM biotin-tagged BAD (biotin-[…] amino-terminal, AnaSpec, for BCL-xL) or 10 nM BIM peptides (biotin-[…] N-terminal, AnaSpec, for BCL-2) to a final volume of 40 µl in a 96-well PCR plate. […] After incubation for 2 h, 5 µl 6× His-acceptor beads (Cat. No. AL128M, PerkinElmer) were added to each well at 20 µg/ml final concentration and incubated for 1 h. Then 5 µl streptavidin-donor beads were added (Cat. No. 6760002, PerkinElmer) to each well at 20 µg/ml final concentration and incubated for 45 min. At the end of the incubation period, 17 µl of each sample was transferred in adjacent wells of 384-well proxy plate (Cat. No. 6008280, PerkinElmer). The plate was scanned using the Alpha program on Biotek’s Synergy Neo2 multimode plate reader. The inhibition constant (Ki) was calculated using the non-linear regression, one site, competitive binding, Fit Ki function on GraphPad Prism 9 software, based on experimentally determined dissociation constant (Kd) for each protein–peptide pair.

293T cells = assay: Viability (MTS) of 293T cells; format: cell-based, human; conditions: normalised to own plate; for 293T cell viability, MTS absorbance 490 as percent of untreated control, mean of three wells: mean of 3 wells
Protocol: Suspension cells were treated 30 min after seeding, whereas adherent cells were allowed to adhere overnight and were then treated. Compound treatments were prepared in complete cell culture medium and 100 µl of 2× treatment-containing medium were added to each well. Complete cell culture medium without treatment was added in control wells, and wells containing medium without cells served as background. The outer wells of the 96-well plate were not used for treatment and were filled with 250 µl of PBS to reduce evaporation of medium from inner wells. Each compound and/or combination was tested at nine different concentrations with three replicates. The cell viability was measured after 72 h by tetrazolium-based MTS assay. MTS reagent (2 mg ml^–1 stock; cat. no. G1111, Promega) was freshly supplemented with phenazine methosulfate (PMS, 0.92 mg ml^–1 stock, cat. no. P9625, Sigma-Aldrich) in 20:1 ratio, and 20 µl of this mixture was added to each control and treatment well. The cells were incubated for 4 h at 37 °C and 5% CO2, and then the absorbance was recorded at 490 nm using Biotek’s Synergy Neo2 multimode plate reader (Biotek). The average absorbance value of background wells was subtracted from absorbance value of each control and treatment well, and percent cell viability ((At/A0) × 100)) was determined in each treatment well, where At is the absorbance value of the treatment well and A0 is the average absorbance value of control wells after background subtraction. The data were expressed as average percentage cell viability and fitted in non-linear regression curves using GraphPad Prism 7 (GraphPad Software, La Jolla, CA, USA).

Kasumi-1 cells = assay: Viability (MTS) of Kasumi-1 AML cells; format: cell-based, human; conditions: for viability at 0.0411523 µM / viability at 0.37037 µM / viability at 1.11111 µM / viability at 3.33333 µM / viability at 10 µM / viability at […] / IC50: Homo sapiens; for viability at 0.0411523 µM: Kasumi 1, Concentration 0.0411523 uM; for viability at 0.0411523 µM / viability at 0.37037 µM / viability at 1.11111 µM / viability at 3.33333 µM / viability at 10 µM / viability at […]: Supplementary Fig. 12b; for viability at 0.37037 µM: Kasumi 1, Concentration 0.37037 uM; for viability at 1.11111 µM: Kasumi 1, Concentration 1.11111 uM; for viability at 3.33333 µM: Kasumi 1, Concentration 3.33333 uM; for viability at 10 µM: Kasumi 1, Concentration 10 uM; for viability at […]: Kasumi 1, Concentration […]; for IC50: Kasumi 1, 72 h
[1] = Average of 3 wells, read-out: MTS viability, percent of 0 uM control, Average
[2] = single well, read-out: MTS viability, corrected absorbance 490 as percent of 0 uM control

Alpha signal normalised to Maximum/Minimum (inhibition) (His-tagged BCL-2; BCL-2 Rep-1, 5 uM, 5 µM): 98.7813 | inhibition at 5 µM (His-tagged BCL-2; BCL-2 Rep-1, 5 uM, read-out: Alpha signal normalised to Maximum/Minimum (inhibition)): 99% | Alpha signal (raw counts) (His-tagged BCL-2; BCL-2 Rep-2, 0.00488281 uM): 125701 and 136831 | Alpha signal normalised to Maximum/Minimum (inhibition) (His-tagged BCL-2; BCL-2 Rep-2, 0.0195312 uM, 0.0195312 µM): 98.383 | inhibition at 0.0195312 µM (His-tagged BCL-2; BCL-2 Rep-2, 0.0195312 uM, read-out: Alpha signal normalised to Maximum/Minimum (inhibition)): 98.1% | Alpha signal normalised to Maximum/Minimum (inhibition) (His-tagged BCL-2; BCL-2 Rep-2, 0.078125 uM, 0.078125 µM): 99.1744 | inhibition at 0.078125 µM (His-tagged BCL-2; BCL-2 Rep-2, 0.078125 uM, read-out: Alpha signal normalised to Maximum/Minimum (inhibition)): 98.7% | Alpha signal normalised to Maximum/Minimum (inhibition) (His-tagged BCL-2; BCL-2 Rep-2, 0.3125 uM, 0.3125 µM): 99.3426 | inhibition at 0.3125 µM (His-tagged BCL-2; BCL-2 Rep-2, 0.3125 uM, read-out: Alpha signal normalised to Maximum/Minimum (inhibition)): 98.9% | Alpha signal normalised to Maximum/Minimum (inhibition) (His-tagged BCL-2; BCL-2 Rep-2, 1.25 uM, 1.25 µM): 99.8148 | inhibition at 1.25 µM (His-tagged BCL-2; BCL-2 Rep-2, 1.25 uM, read-out: Alpha signal normalised to Maximum/Minimum (inhibition)): 97.9% | Alpha signal normalised to Maximum/Minimum (inhibition) (His-tagged BCL-2; BCL-2 Rep-2, 5 uM, 5 µM): 100.138 | inhibition at 5 µM (His-tagged BCL-2; BCL-2 Rep-2, 5 uM, read-out: Alpha signal normalised to Maximum/Minimum (inhibition)): 98% | Alpha signal (raw counts) (His-tagged BCL-2; BCL-2 Rep-2, plate row C, 1.25 uM): 32515 and 16642 | Alpha signal (raw counts) (His-tagged BCL-2; BCL-2 Rep-2, plate row D, 0.3125 uM): 24362 and 20560 | Alpha signal (raw counts) (His-tagged BCL-2; BCL-2 Rep-2, plate row E, 0.078125 uM): 25987 and 21955 | Alpha signal (raw counts) (His-tagged BCL-2; BCL-2 Rep-2, plate row F, 0.0195312 uM): 31255 and 28520 | Alpha signal (raw counts) (His-tagged BCL-2; BCL-2 Rep-2, plate row H, 0.0012207 uM): 409647 and 386712 | Alpha signal (raw counts) (His-tagged BCL-2; BCL-2 Rep-2, plate row I, 0.000305176 uM): 513586 and 565907 | Alpha signal (raw counts) (His-tagged BCL-2; BCL-2 Rep-2, plate row J, 7.62939e-5 uM): 711623 and 736033 | Alpha signal (raw counts) (His-tagged BCL-2; BCL-2 Rep-2, plate row K, 1.90735e-5 uM): 598210 and 675191
SMILES: CC1(C)CCC(c2ccc(Cl)cc2)=C(CN2CCN(c3ccc(C(=O)NS(=O)(=O)c4ccc(N[C@H](CCN5CCOCC5)CSc5ccccc5)c(S(=O)(=O)C(F)(F)F)c4)cc3)CC2)C1 [ABT263, navitoclax]
293T cell viability, MTS absorbance 490 as percent of untreated control, mean of three wells (293T cells; 0.00137174 uM): 97.7794 | 293T cell viability, MTS absorbance 490 as percent of untreated control, single replicate well (293T cells; 0.00137174 uM): 98.6099 and 98.5015 | 293T cell viability, MTS absorbance 490 as percent of untreated control, mean of three wells (293T cells; 0.00411523 uM): 103.484 | 293T cell viability, MTS absorbance 490 as percent of untreated control, single replicate well (293T cells; 0.00411523 uM): 107.709 and 108.359 | 293T cell viability, MTS absorbance 490 as percent of untreated control, single replicate well (293T cells; 0.037037 uM): 116.375 and 110.092 | 293T cell viability, MTS absorbance 490 as percent of untreated control, single replicate well (293T cells; 0.111111 uM): 96.1184 and 122.874 and 120.166 | 293T cell viability, MTS absorbance 490 as percent of untreated control, single replicate well (293T cells; 0.333333 uM): 101.968 and 111.934 | 293T cell viability, MTS absorbance 490 as percent of untreated control, single replicate well (293T cells; 1 uM): 97.2017 and 104.893 | 293T cell viability, MTS absorbance 490 as percent of untreated control, single replicate well (293T cells; 3 uM): 60.8052 and 61.6718 | Luminescence (raw plate reading) (Kasumi-1 cells; 3.90625 nM (plate column 2), Fig. 7a): 652130 and 630259 and 658966 and 744397 | Luminescence (raw plate reading) (Kasumi-1 cells; 7.8125 nM (plate column 3), Fig. 7a): 632892 and 633903 and 634701 and 712997 | Luminescence (raw plate reading) (Kasumi-1 cells; 15.625 nM (plate column 4), Fig. 7a): 642408 and 622919 and 622003 and 704279 | Luminescence (raw plate reading) (Kasumi-1 cells; 31.25 nM (plate column 5), Fig. 7a): 622577 and 612176 and 601421 and 652847 | Luminescence (raw plate reading) (Kasumi-1 cells; 62.5 nM (plate column 6), Fig. 7a): 542999 and 553178 and 531814 and 597127 | Luminescence (raw plate reading) (Kasumi-1 cells; 125 nM (plate column 7), Fig. 7a): 381320 and 423693 and 412676 and 432347 | Luminescence (raw plate reading) (Kasumi-1 cells; 250 nM (plate column 8), Fig. 7a): 247450 and 230935 and 221189 and 256346 | Luminescence (raw plate reading) (Kasumi-1 cells; 500 nM (plate column 9), Fig. 7a): 119937 and 119731 and 112901 and 107498 | Luminescence (raw plate reading) (Kasumi-1 cells; 1000 nM (plate column 10), Fig. 7a): 56843 and 48094 and 45547 and 41795 | Luminescence (raw plate reading) (Kasumi-1 cells; 2000 nM = 2U (plate column 11), Fig. 7a): 20891 and 18712 and 20895 and 17813 | Luminescence (raw plate reading) (Kasumi-1 cells; 4000 nM = 4U (plate column 12), Fig. 7a): 11066 and 13361 and 10294 and 10997 | Luminescence normalised to mean of the 0 concentration wells (= 100), viability (Kasumi-1 cells; 3.90625 (nM), Fig. 7a): 95.2795 and 92.0841 and 96.2783 and 108.76 | Luminescence normalised to mean of the 0 concentration wells (= 100), viability (Kasumi-1 cells; 7.8125 (nM), Fig. 7a): 92.4688 and 92.6165 and 92.7331 and 104.173 | Luminescence normalised to mean of the 0 concentration wells (= 100), viability (Kasumi-1 cells; 15.625 (nM), Fig. 7a): 93.8591 and 91.0117 and 90.8778 and 102.899 | Luminescence normalised to mean of the 0 concentration wells (= 100), viability (Kasumi-1 cells; 31.25 (nM), Fig. 7a): 90.9617 and 89.442 and 87.8707 and 95.3843 | Luminescence normalised to mean of the 0 concentration wells (= 100), viability (Kasumi-1 cells; 62.5 (nM), Fig. 7a): 79.3349 and 80.8221 and 77.7007 and 87.2433 | Luminescence normalised to mean of the 0 concentration wells (= 100), viability (Kasumi-1 cells; 125 (nM), Fig. 7a): 55.7128 and 61.9037 and 60.2941 and 63.1681 | Luminescence normalised to mean of the 0 concentration wells (= 100), viability (Kasumi-1 cells; 250 (nM), Fig. 7a): 36.1537 and 33.7408 and 32.3168 and 37.4535 | Luminescence normalised to mean of the 0 concentration wells (= 100), viability (Kasumi-1 cells; 500 (nM), Fig. 7a): 17.5234 and 17.4933 and 16.4954 and 15.706 | Luminescence normalised to mean of the 0 concentration wells (= 100), viability (Kasumi-1 cells; 1000 (nM), Fig. 7a): 8.305 and 7.027 and 6.655 and 6.106 | Luminescence normalised to mean of the 0 concentration wells (= 100), viability (Kasumi-1 cells; 2000 (nM, 2U), Fig. 7a): 3.052 and 2.734 and 3.053 and 2.603 | Luminescence normalised to mean of the 0 concentration wells (= 100), viability (Kasumi-1 cells; 4000 (nM, 4U), Fig. 7a): 1.6168 and 1.952 and 1.504 and 1.607 | viability at 0.0411523 µM (Kasumi-1 cells; [1]): 92.4% | viability at 0.0411523 µM (Kasumi-1 cells; [2]): 91% | viability at 0.37037 µM (Kasumi-1 cells; [1]): 20.7% | viability at 0.37037 µM (Kasumi-1 cells; [2]): 21.4% | viability at 1.11111 µM (Kasumi-1 cells; [1]): 18% | viability at 1.11111 µM (Kasumi-1 cells; [2]): 16.5% | viability at 3.33333 µM (Kasumi-1 cells; [1]): 13.1% | viability at 3.33333 µM (Kasumi-1 cells; [2]): 13.4% | viability at 10 µM (Kasumi-1 cells; [1]): 12.1% | viability at 10 µM (Kasumi-1 cells; [2]): 12.3% | viability at […] (Kasumi-1 cells; [1]): 78.8% | viability at […] (Kasumi-1 cells; [2]): 78.2% | IC50 (Kasumi-1 cells; Fig. 7a, read-out: IC50, viability of Kasumi-1 AML cells): 156 nM | IC50 (Kasumi-1 cells; Fig. 7c, read-out: IC50, viability of Kasumi-1 cells): 131 nM
